Laboratory results as given in US20140221429A1, “HETEROCYCLIC SCHIFF'S BASES AS NOVEL AND NEW ANTIGLYCATION AGENTS” (priority 2013, published 2014).
Where “and” joins values, the source holds several entries; their conditions need not be identical. Equal values may be shown once. Read-outs that look alike come from different tables or passages of the source.

Biological target: T1, bovine serum albumin (BSA-methylglyoxal glycation) (Bos taurus, UniProt P02769)
T1 construct: purchased Merck Marker Pvt; Ltd. (Germany)
T1 sequence (P02769 25-607): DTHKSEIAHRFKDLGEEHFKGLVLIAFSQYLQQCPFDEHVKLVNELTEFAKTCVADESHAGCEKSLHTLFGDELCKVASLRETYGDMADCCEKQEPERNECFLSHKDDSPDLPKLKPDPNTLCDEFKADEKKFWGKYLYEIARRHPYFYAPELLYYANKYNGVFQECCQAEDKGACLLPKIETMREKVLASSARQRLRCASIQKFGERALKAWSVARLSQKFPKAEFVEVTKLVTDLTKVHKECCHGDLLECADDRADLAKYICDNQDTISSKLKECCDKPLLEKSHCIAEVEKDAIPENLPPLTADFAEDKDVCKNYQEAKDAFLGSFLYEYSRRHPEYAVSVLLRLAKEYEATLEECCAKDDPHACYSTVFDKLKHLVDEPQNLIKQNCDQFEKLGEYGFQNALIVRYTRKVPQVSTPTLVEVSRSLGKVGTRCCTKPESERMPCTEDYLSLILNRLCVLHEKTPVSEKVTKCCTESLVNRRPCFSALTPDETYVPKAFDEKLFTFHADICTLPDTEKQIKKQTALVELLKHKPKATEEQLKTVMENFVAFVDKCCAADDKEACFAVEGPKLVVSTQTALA
Assay: in vitro BSA-MG glycation model (antiglycation assay)
Assay type: biochemical
Conditions: for inhibition at 1000 µM: read-out: inhibition of protein glycation
Procedure: Bovine Serum Albumin (BSA) was purchased from Merck Marker Pvt. Ltd. (Germany), rutin and methylglyoxal (MG) (40% aqueous solution) were from Sigma Aldrich (Japan), sodium dihydrogen phosphate (NaH2PO4), disodium hydrogen phosphate (Na2HPO4) and sodium azide (NaN3) were purchased from Scharlau Chemie, S. A. (Spain), while dimethyl sulphoxide (DMSO) was purchased from Fischer Scientific (UK).
The total reaction volume of the assay was 200 μL, having final concentrations of 10 mg/mL BSA, 14 mM methylglyoxal, and 1 mM test compounds. 10 mg/mL solution of BSA and 14 mM methylglyoxal was prepared in 0.1 M phosphate buffer (pH 7.4), containing sodium azide (NaN3) (30 mM) as antimicrobial agent, while 1 mM solutions of test compounds were prepared in the DMSO. Assay was performed in triplicate. Each reaction mixtures were comprised of 50 μL BSA, 50 μL methylglyoxal, 20 μL test compound and 80 μL phosphate buffer (pH 7.4). The reaction mixture was incubated under aseptic conditions at 37° C. for 9 days.
After completion of nine days of incubation, each sample was examined for the development of specific fluorescence (excitation 330 nm; emission 420 nm) against blank on a microtitre plate reader (SpectraMax M2, Molecular Devices, CA, USA).
The percent inhibition of AGE formation by the test sample versus control was calculated by using the following formula:
% Inhibition=([…]−Fluorescence of test sample/Fluorescence of the control)×100
The IC50 (i.e. the concentration of test samples that inhibit the process of glycation to 50%) was determined by monitoring the effect of various concentrations (ranges from 1000-50 μM) of test compounds. The IC50 values were calculated by using EZ-FIT Enzyme Kinetics Program (Perrella Scientific Inc., Amherst, USA). The antiglycation potential of test compounds was compared with rutin, which was used as standard inhibitor.

[1] = Antiglycation Studies IC50 ± SEM, BSA-MG model, 10 mg/mL BSA, 14 mM methylglyoxal, 37° C., 9 days, fluorescence ex 330/em 420 nm

Structure (SMILES): O=C(NN=Cc1cccc([N+](=O)[O-])c1)c1ccccc1 [Compound 1, N′-(3-Nitrobenzylidene)benzohydrazide]
- Antiglycation Studies IC50 ± SEM: Inactive
- antiglycation activity (in words): inactive
- inhibition at 1000 µM: < 50%

Structure (SMILES): O=C(NN=Cc1ccccc1[N+](=O)[O-])c1ccccc1 [Compound 2, N′-(2-Nitrobenzylidene)benzohydrazide]
- Antiglycation Studies IC50 ± SEM: Inactive
- antiglycation activity (in words): inactive
- inhibition at 1000 µM: < 50%

Structure (SMILES): O=C(NN=Cc1ccco1)c1cccs1 [Compound 3, 2-Thiophenecarboxylic acid, (2-furanylmethylene)hydrazide (9CI)]
- IC50 [1]: 520.8 ± 1.8 µM
- antiglycation activity (in words) (BSA-MG model): moderate inhibition

Structure (SMILES): Cc1ccc(C=NNC(=O)c2cccs2)o1 [Compound 4, 2-Thiophencarboxylic acid, [(5-methyl-2-furanyl)methylene] hydrazide (9CI)]
- IC50 (Antiglycation IC50 (unit printed as μ), BSA-MG model assay): 442.8 ± 0.68 µM
- IC50 [1]: 442.8 ± 0.68 µM
- antiglycation activity (in words) (BSA-MG model): moderate inhibition

Structure (SMILES): C(=NNc1ccccn1)c1ccccn1 [Compound 5, 1,3-Bis(2′-pyridyl)-1,2-diazapropen-2-ene]
- IC50 [1]: 397.2 ± 2.2 µM

Structure (SMILES): C(=Nc1ccc(Cc2ccc(N=Cc3ccccn3)cc2)cc1)c1ccccn1 [Compound 6, Bis[4-(2-pyridylmethyleneamino)phenyl]methane]
- IC50 [1]: 862.8 ± 3.3 µM

Structure (SMILES): C[C@@H]1O[C@@H](OC[C@H]2O[C@@H](Oc3c(-c4ccc(O)c(O)c4)oc4cc(O)cc(O)c4c3=O)[C@H](O)[C@@H](O)[C@@H]2O)[C@H](O)[C@H](O)[C@H]1O [Rutin, reference compound]
- IC50 (BSA-MG model, 10 mg/mL BSA, 14 mM methylglyoxal, 37° C., 9 days, fluorescence ex 330/em 420 nm, read-out: Antiglycation Studies IC50 ± SEM): 294 µM and 295 µM
